Where two headings read alike, the source gives them in different places. Non-standard residues stand in square brackets, D forms with d. Residues, ends and D or L forms follow the SMILES beside them. *: point of attachment. Nva = CCC[C@H](N)C(=O)O; Cbz = O=C(OCc1ccccc1)*
Experiments:
SARS-CoV-2 3CL^pro [1] = biological target: T1, SARS-CoV-2 3CL^pro (Severe acute respiratory syndrome coronavirus 2, UniProt P0DTD1); format: biochemical
[2] = system: SARS-CoV-2 (USA_WA1/2020); experiment: SARS-CoV-2 cytopathic effect; format: cell-based; conditions: Vero E6 cells; for EC50: read-out: SARS-CoV-2 CPE EC50
Vero E6 cells = conditions: for CC50: read-out: Vero E6 cytotoxicity CC50
SARS-CoV-2 = conditions: cited from earlier work
SARS-CoV-2 3CL^pro [3] = biological target: T1, SARS-CoV-2 3CL^pro; conditions: cited from earlier work
SARS-CoV-2 virus = conditions: cited from earlier work
[4] = Table 2, compounds with partial fluorescence quenching effect

SMILES	3CL^pro inhibition max resp (SARS-CoV-2 3CL^pro [1]; Table 1 compounds) [%]	Vero E6 cytotoxicity efficacy (Vero E6 cells; no virus, Table 1 compounds) [%]	CC50 (Vero E6 cells; no virus, Table 1 compounds) [µM]	SARS-CoV-2 CPE efficacy ([2]; 72 h, Table 1 compounds) [%]	EC50 ([2]; 72 h, Table 1 compounds) [µM]	also measured
CCCCCCCCCCCCCCCc1cccc(O)c1C(=O)O [anacardic acid]	–	–	–	–	–	3CL^pro inhibition max resp (SARS-CoV-2 3CL^pro [1]; [4]): 105.9%; SARS-CoV-2 CPE efficacy ([2]; Table 2 quenching compounds): 89.62%; EC50 ([2]; Table 2 quenching compounds): 3.98 µM; Vero E6 cytotoxicity efficacy (Vero E6 cells; Table 2 quenching compounds): 72.92%
CCC[C@@H](C=O)NC(=O)[C@H](CC(C)C)NC(=O)[C@H](CC(C)C)NC(=O)OCc1ccccc1 [MG-115] (Cbz-Leu-Leu-[Nva]-aldehyde)	74.89	115.48	1.13	–	–	–
COCCn1c2c([n+](Cc3cnccn3)c1C)C(=O)c1ccccc1C2=O [sepantronium bromide]	61.79	20.12	–	0	–	–
CC1(C)OC2=C(C(=O)c3ccccc3C2=O)[C@H](NCc2ccccc2)[C@@H]1O [CAY-10581]	–	0	> 20	0	> 20	–
O=c1c2ccccc2[se]n1-c1ccccc1 [ebselen]	–	–	–	–	–	antiviral activity in viral RNA quantification and plaque-reduction assays (SARS-CoV-2): strongest antiviral activity
CC#C[C@@H](CC(=O)O)c1ccc(OCc2cccc(-c3ccc(C(F)(F)F)cc3)c2)cc1 [AMG-837]	–	–	–	–	–	3CL^pro inhibition max resp (SARS-CoV-2 3CL^pro [1]; [4]): 65.79%; SARS-CoV-2 CPE efficacy ([2]; Table 2 quenching compounds): 106.31%; Vero E6 cytotoxicity efficacy (Vero E6 cells; Table 2 quenching compounds): 20.2%
CCCCCCCCCCCCCCCCC(C(=O)O)C(O)(CC(=O)O)C(=O)O (centres unmarked) [agaric acid]	110.16	0	> 20	0	> 20	–
Cc1cc(C(=O)N[C@@H](C)C(=O)N[C@H](C(=O)N[C@@H](CC(C)C)C(=O)NC(/C=C/C(=O)OCc2ccccc2)C[C@@H]2CCNC2=O)C(C)C)no1 (some centres unmarked) [N3]	–	–	–	–	–	antiviral activity in viral RNA quantification and plaque-reduction assays (SARS-CoV-2): strongest antiviral activity
CC(C)c1nc(CN(C)C(=O)N[C@H](C(=O)N[C@@H](Cc2ccccc2)C[C@H](O)[C@H](Cc2ccccc2)NC(=O)OCc2cncs2)C(C)C)cs1 [ritonavir]	–	–	–	–	–	inhibition of 3CL^pro (SARS-CoV-2 3CL^pro [3]): did not show inhibition
Cc1cccc(C)c1OCC(=O)N[C@@H](Cc1ccccc1)[C@@H](O)C[C@H](Cc1ccccc1)NC(=O)[C@H](C(C)C)N1CCCNC1=O [Lopinavir]	–	–	–	–	–	inhibition of 3CL^pro (SARS-CoV-2 3CL^pro [3]): did not show inhibition
CC(C)c1ccc2c(c1)c(SC(C)(C)C)c(CC(C)(C)C(=O)O)n2Cc1ccc(Cl)cc1 [MK-886]	–	–	–	–	–	3CL^pro inhibition max resp (SARS-CoV-2 3CL^pro [1]; [4]): 109.11%; Vero E6 cytotoxicity efficacy (Vero E6 cells; Table 2 quenching compounds): 40.83%; CC50 (Vero E6 cells; Table 2 quenching compounds): 14.1 µM
O=C(Nc1cc(C(F)(F)F)cc(C(F)(F)F)c1)c1cnc(Cl)nc1C(F)(F)F [SP 100030]	–	0	> 20	0	> 20	–
CN[C@H](CC(C)C)C(=O)N[C@H]1C(=O)N[C@@H](CC(N)=O)C(=O)N[C@H]2C(=O)N[C@H]3C(=O)N[C@H](C(=O)N[C@H](C(=O)O)c4cc(O)cc(O)c4-c4cc3ccc4O)[C@H](O[C@H]3C[C@](C)(N)[C@@H](O)[C@H](C)O3)c3ccc(c(Cl)c3)Oc3cc2cc(c3O[C@@H]2O[C@H](CO)[C@@H](O)[C@H](O)[C@H]2O[C@H]2C[C@](C)(NCc3ccc(-c4ccc(Cl)cc4)cc3)[C@@H](O)[C@H](C)O2)Oc2ccc(cc2Cl)[C@H]1O.O=P(O)(O)O.O=P(O)(O)O [oritavancin (diphosphate)]	93.29	23.51	14.1	0	> 20	–
Cc1cc(SCc2sc(-c3ccc(C(F)(F)F)c(F)c3)nc2C)ccc1OCC(=O)O [GW-0742]	126.23	0	> 20	0	> 20	–
Cc1cc(O[C@@H](CCC(F)(F)F)c2ccc(C(=O)NCCC(=O)O)cc2)cc(C)c1-c1ccc(C(C)(C)C)cc1 [adomeglivant]	–	–	–	–	–	SARS-CoV-2 CPE efficacy ([2]; Table 2 quenching compounds): 49.2%; Vero E6 cytotoxicity efficacy (Vero E6 cells; Table 2 quenching compounds): 36.97%
CC(C)(C)NC(=O)N[C@H](C(=O)N1C[C@H]2[C@@H]([C@H]1C(=O)NC(CC1CCC1)C(=O)C(N)=O)C2(C)C)C(C)(C)C (some centres unmarked) [Boceprevir]	–	–	–	–	–	activity in CPE and viral yield reduction assays (SARS-CoV-2 virus): active in both CPE and viral yield reduction assays; EC50 (SARS-CoV-2 virus; read-out: EC50 against SARS-CoV-2 virus infection in the CPE assay): 1900 nM
O=C1Nc2ccc(I)cc2/C1=C/c1cc(Br)c(O)c(Br)c1 [GW5074]	–	–	–	–	–	3CL^pro inhibition max resp (SARS-CoV-2 3CL^pro [1]; [4]): 63.16%; Vero E6 cytotoxicity efficacy (Vero E6 cells; Table 2 quenching compounds): 20.1%; CC50 (Vero E6 cells; Table 2 quenching compounds): 11.2 µM
O=C(O)c1ccc(N2C(=O)/C(=C\c3ccc(-c4ccc([N+](=O)[O-])cc4)o3)C=C2c2ccccc2)cc1 [4E1RCat]	76.33	0	> 20	0	> 20	IC50 (SARS-CoV-2 3CL^pro [1]; read-out: 3CL^pro inhibition IC50): 18.3 µM

Reference: article PMC7507806 (ACS Pharmacology & Translational Science, 2020)
